From publication PMC9516332 (Frontiers in Oncology, 2022)
Read-outs that look alike come from different tables or passages of the source.

What was measured:
[1] = molecular target: panel of 255 wild-type kinases (Homo sapiens, UniProt P08581); test: Kinase panel profiling at 1 µmol/L (MSA or IMAP), percentage inhibition; format: biochemical; conditions: MET; 1 µmol/L single concentration
[2] = molecular target: panel of 255 wild-type kinases (Homo sapiens, UniProt P31749); test: as above; format: biochemical; conditions: AKT1 kinase assay; 1 µmol/L single concentration; read-out: %-inhibition AKT1
[3] = molecular target: T1, panel of 255 wild-type kinases (Homo sapiens, UniProt Q96PF2); test: as above; format: biochemical; conditions: kinase TSSK2; 1 µmol/L single concentration; read-out: %-inhibition at 1 µmol/L, TSSK2
T1 sequence (Q96PF2 1-358): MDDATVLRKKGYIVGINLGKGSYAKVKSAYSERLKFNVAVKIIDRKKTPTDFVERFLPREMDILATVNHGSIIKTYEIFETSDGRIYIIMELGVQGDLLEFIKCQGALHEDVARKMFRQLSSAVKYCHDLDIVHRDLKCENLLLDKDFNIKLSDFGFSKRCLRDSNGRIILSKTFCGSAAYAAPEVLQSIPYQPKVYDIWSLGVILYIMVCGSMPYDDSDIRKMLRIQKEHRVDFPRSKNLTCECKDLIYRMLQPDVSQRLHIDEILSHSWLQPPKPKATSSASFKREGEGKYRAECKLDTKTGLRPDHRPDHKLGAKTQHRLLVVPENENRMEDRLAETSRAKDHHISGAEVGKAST

[4] = molecular target: panel of 255 wild-type kinases (Homo sapiens, UniProt Q9Y463); test: as above; format: biochemical; conditions: kinase DYRK1B; 1 µmol/L single concentration; read-out: %-inhibition at 1 µmol/L, DYRK1B
[5] = tested on: 134 cancer cell lines
[6] = tested on: AP-1060 (ETV6-NTRK3); test: Cell viability assay; conditions: read-out: IC50 in cell proliferation assay
[7] = tested on: 134 cancer cell lines; test: Cell viability assay (ATPlite, 72 hours), IC50 on cancer cell line panel

inhibition at 1 µM [1]: -0.807%
inhibition at 1 µM [2]: -11%
inhibition at 1 µM [3]: -4.25%
inhibition at 1 µM [4]: -3.17%
IC50 [5]: 99 nM
IC50 ([7]; HEC-6, read-out: IC50 in cell proliferation assay, HEC-6 cell line (EGFR p.A289V)): > 31600 nM
IC50 ([7]; Homo sapiens, 769-P, read-out: IC50 in cell proliferation assay, cell line 769-P): 665 nM
IC50 ([7]; Homo sapiens, 786-0, read-out: IC50 in cell proliferation assay, cell line 786-O): > 31600 nM
IC50 ([7]; Homo sapiens, A 172, read-out: IC50 in cell proliferation assay, cell line A-172): 25300 nM
IC50 ([7]; Homo sapiens, A204, read-out: IC50 in cell proliferation assay, cell line A-204): > 31600 nM
IC50 ([7]; Homo sapiens, A498, read-out: IC50 in cell proliferation assay, cell line A-498): 137 nM
IC50 ([7]; Homo sapiens, A549, read-out: IC50 in cell proliferation assay, cell line A-549): 132 nM
IC50 ([7]; Homo sapiens, A704, read-out: IC50 in cell proliferation assay, cell line A-704): > 31600 nM
IC50 ([7]; Homo sapiens, A-375, read-out: IC50 in cell proliferation assay, cell line A-375 (BRAF p.V600E)): 145 nM
IC50 ([7]; Homo sapiens, A-427, read-out: IC50 in cell proliferation assay, cell line A-427): 1340 nM
IC50 ([7]; Homo sapiens, ACHN, read-out: IC50 in cell proliferation assay, cell line ACHN): 14400 nM
IC50 ([7]; Homo sapiens, AN3-CA, read-out: IC50 in cell proliferation assay, cell line AN3-CA (FGFR2 p.N549K)): 2330 nM
IC50 ([7]; Homo sapiens, ASPC1, read-out: IC50 in cell proliferation assay, cell line AsPC-1): 210 nM
IC50 ([7]; Homo sapiens, AU565, read-out: IC50 in cell proliferation assay, cell line AU565 (ERBB2 amplification)): > 31600 nM
IC50 ([7]; Homo sapiens, BT-20, read-out: IC50 in cell proliferation assay, cell line BT-20): 9260 nM
IC50 ([7]; Homo sapiens, BT-474, read-out: IC50 in cell proliferation assay, cell line BT-474 (ERBB2 amplification)): > 31600 nM
IC50 ([7]; Homo sapiens, BT-549, read-out: IC50 in cell proliferation assay, cell line BT-549): > 31600 nM
IC50 ([7]; Homo sapiens, BXPC-3, read-out: IC50 in cell proliferation assay, cell line BxPC-3): 472 nM
IC50 ([7]; Homo sapiens, C-33-A, read-out: IC50 in cell proliferation assay, cell line C-33 A): 2.72 nM
IC50 ([7]; Homo sapiens, CAL-27, read-out: IC50 in cell proliferation assay, cell line CAL-27): 61 nM
IC50 ([7]; Homo sapiens, CCF-STTG1, read-out: IC50 in cell proliferation assay, cell line CCF-STTG1): > 31600 nM
IC50 ([7]; Homo sapiens, CCRF-CEM, read-out: IC50 in cell proliferation assay, cell line CCRF-CEM): > 31600 nM
IC50 ([7]; Homo sapiens, COLO 205, read-out: IC50 in cell proliferation assay, cell line COLO 205 (BRAF p.V600E)): 38 nM
IC50 ([7]; Homo sapiens, COLO-829, read-out: IC50 in cell proliferation assay, cell line COLO 829 (BRAF p.V600E)): 117 nM
IC50 ([7]; Homo sapiens, DLD-1, read-out: IC50 in cell proliferation assay, cell line DLD-1): 21400 nM
IC50 ([7]; Homo sapiens, DU-4475, read-out: IC50 in cell proliferation assay, cell line DU4475 (BRAF p.V600E)): 88 nM
IC50 ([7]; Homo sapiens, Daoy, read-out: IC50 in cell proliferation assay, cell line Daoy): > 31600 nM
IC50 ([7]; Homo sapiens, DoTc2-4510, read-out: IC50 in cell proliferation assay, cell line DoTc2 4510): 32 nM
IC50 ([7]; Homo sapiens, EOL1, read-out: IC50 in cell proliferation assay, cell line EoL-1 (FIP1L1-PDGFRA)): 92 nM
IC50 ([7]; Homo sapiens, FaDu, read-out: IC50 in cell proliferation assay, cell line FaDu): 73 nM
IC50 ([7]; Homo sapiens, G-361, read-out: IC50 in cell proliferation assay, cell line G-361 (BRAF p.V600E)): 225 nM
IC50 ([7]; Homo sapiens, HCC827, read-out: IC50 in cell proliferation assay, cell line HCC827 (EGFR exon19del)): 9710 nM
IC50 ([7]; Homo sapiens, HCC4006, read-out: IC50 in cell proliferation assay, cell line HCC4006 (EGFR exon19del)): 26800 nM
IC50 ([7]; Homo sapiens, HCT-15, read-out: IC50 in cell proliferation assay, cell line HCT 15): > 31600 nM
IC50 ([7]; Homo sapiens, HCT-116, read-out: IC50 in cell proliferation assay, cell line HCT 116): 2.26 nM
IC50 ([7]; Homo sapiens, HEC-1, read-out: IC50 in cell proliferation assay, HEC-1 cell line): > 31600 nM
IC50 ([7]; Homo sapiens, HEC-1B, read-out: IC50 in cell proliferation assay, HEC-1-B cell line (EGFR p.A864V)): 27 nM
IC50 ([7]; Homo sapiens, HL-60, read-out: IC50 in cell proliferation assay, HL-60 cell line): 13 nM
IC50 ([7]; Homo sapiens, HT, read-out: IC50 in cell proliferation assay, HT cell line): 14800 nM
IC50 ([7]; Homo sapiens, HT-1080, read-out: IC50 in cell proliferation assay, HT-1080 cell line): 132 nM
IC50 ([7]; Homo sapiens, Hs746T, read-out: IC50 in cell proliferation assay, Hs 746.T cell line (MET exon14skip + amplification)): 19400 nM
IC50 ([7]; Homo sapiens, Hs-578T, read-out: IC50 in cell proliferation assay, Hs 578T cell line): 78 nM
IC50 ([7]; Homo sapiens, HuTu80, read-out: IC50 in cell proliferation assay, HuTu 80 cell line): 413 nM
IC50 ([7]; Homo sapiens, J82, read-out: IC50 in cell proliferation assay, J82 cell line): 265 nM
IC50 ([7]; Homo sapiens, Jurkat E6.1, read-out: IC50 in cell proliferation assay, Jurkat E6.1 cell line): > 31600 nM
IC50 ([7]; Homo sapiens, K562, read-out: IC50 in cell proliferation assay, K-562 cell line): 241 nM
IC50 ([7]; Homo sapiens, KATO III, read-out: IC50 in cell proliferation assay, KATO III cell line (FGFR2 amplification)): 16500 nM
IC50 ([7]; Homo sapiens, KG-1, read-out: IC50 in cell proliferation assay, KG-1 cell line (FGFR1OP2-FGFR1)): 10 nM
IC50 ([7]; Homo sapiens, KLE, read-out: IC50 in cell proliferation assay, KLE cell line): > 31600 nM
IC50 ([7]; Homo sapiens, KMS-11, read-out: IC50 in cell proliferation assay, KMS-11 cell line (FGFR3 p.Y373C)): > 31600 nM
IC50 ([7]; Homo sapiens, KU812, read-out: IC50 in cell proliferation assay, Ku812 cell line): 73 nM
IC50 ([7]; Homo sapiens, Kasumi 1, read-out: IC50 in cell proliferation assay, Kasumi-1 cell line (KIT p.N822K)): 345 nM
IC50 ([7]; Homo sapiens, LC-2-ad, read-out: IC50 in cell proliferation assay, LC-2/ad cell line (CCDC6-RET)): 31000 nM
IC50 ([7]; Homo sapiens, LNCaP-Clone-FGC, read-out: IC50 in cell proliferation assay, LNCaP clone FGC cell line): > 31600 nM
IC50 ([7]; Homo sapiens, LS174T, read-out: IC50 in cell proliferation assay, LS174T cell line): 177 nM
IC50 ([7]; Homo sapiens, LS-411N, read-out: IC50 in cell proliferation assay, LS411N cell line (BRAF p.V600E)): 75 nM
IC50 ([7]; Homo sapiens, LoVo, read-out: IC50 in cell proliferation assay, LoVo cell line): 34 nM
IC50 ([7]; Homo sapiens, MCF7, read-out: IC50 in cell proliferation assay, MCF-7 cell line): > 31600 nM
IC50 ([7]; Homo sapiens, MDA-MB-231, read-out: IC50 in cell proliferation assay, MDA-MB-231 cell line): 1000 nM
IC50 ([7]; Homo sapiens, MDA-MB-453, read-out: IC50 in cell proliferation assay, MDA-MB-453 cell line): 9170 nM
IC50 ([7]; Homo sapiens, MDA-MB-468, read-out: IC50 in cell proliferation assay, MDA-MB-468 cell line): > 31600 nM
IC50 ([7]; Homo sapiens, MG-63, read-out: IC50 in cell proliferation assay, MG-63 cell line): 6090 nM
IC50 ([7]; Homo sapiens, MIA PaCa-2, read-out: IC50 in cell proliferation assay, MIA PaCa-2 cell line): 221 nM
Compound: Cn1cnc2c(F)c(Nc3ccc(Br)cc3Cl)c(C(=O)NOCCO)cc21 [selumetinib]
IC50 [6]: > 31600 nM
